In experiment [1] the test system is 3815 strain. The experiment is described as follows: Ring stage survival assay (RSA). The experiment is classed as cell-based, P. falciparum. Conditions: mean ± SD of three experiments. An excerpt:
(§1) In early and late trophozoites, multiple PRDX6 foci (white arrow heads) were observed adjacent to the parasite FV. DNA, Hoechst 33342 (nuclei). Scale bars: 5 µm. (B-F) Immuno-transmission electron microscopy (TEM) using monoclonal mouse anti-PRDX6 antibody. (B) Uninfected RBC showing even cytosolic staining for PRDX6. (C-F) P. falciparum-infected RBCs show co-localization of PRDX6 and hemoglobin in vesicles at the inner surface of the parasite plasma membrane in structures that resemble cytostomes (black arrows), at the FV (white arrows), or within the parasite cytosol (striped grey arrow). Scale bars: 500 nm. […] Parasites were treated at ring stage and growth to schizont stage in the same cycle ("progression") or to next generation rings ("growth") was scored by flow cytometry using DNA intercalating fluorescent dye SYBR Green I. • Figure 3 concerns the radioactive PLA2 activity assay using phosphorylated recombinant human PRDX6 in presence or absence of Darapladib. Darapladib inhibits PLA2 activity of PRDX6 with IC50 of ≈0.5µM. • Figure 4 is related to the co-treatment of ART-resistant parasites with artemisinin and Darapladib synergistically reduces parasite survival. (A) Ring stage survival assays (RSA) (Witkowski et al., Lancet Infect. Dis. 13, 1043-1049 (2013)) with Darapladib (Dar) and Dihydroartemisinin (DHA) against ART-resistant P. falciparum strains. For detailed data regarding synergism, cf. Table 1. (B) Growth/Progression assay with continuous Darapladib treatment against ART-resistant P. falciparum strains. Data are means ± SD of three independent experiments, unpaired t-tests. […] The thermal shift of the melting temperature of PRDX6 in presence of Darapladib was determined using a SYPRO orange-based differential scanning fluorimetry (DSF) assay. ΔTm > 0.5°C was considered significant. Incubation with 25µM Darapladib decreased the Tm of PRDX6 by 1.1 ± 0.2 °C.
(§2) It has been investigated whether co-treatment with Darapladib and ART could restore ART-susceptibility in the ring stage survival assay (RSA).
(§3) The survival rate for treatment with 1 µM Darapladib alone and 700 nM DHA alone was multiplied to calculate a theoretical survival rate if the effect of the combination was additive ("Calc. Additive"). The experimentally measured survival rate ("Measured") was divided by the calculated theoretical additive survival rate for the co-treatment. A ratio < 1 for Measured/Calc. indicates synergism, a ratio = 1 indicates an additive effect and a ratio > 1 indicates an antagonistic effect. Data are means ± SD of six independent experiments for NF54 C580Y and three independent experiments for 3815, unpaired t-test.

The test system of experiment [2] is NF54 Kelch13^C580Y. In words: Ring stage survival assay (RSA). The experiment is classed as cell-based, P. falciparum. Conditions: mean ± SD of six experiments.
Source text: as §1, §2, §3

In experiment [3] the test system is 3815 strain. The experiment is described as follows: Growth/Progression assay with continuous treatment. Conditions: continuous treatment during the complete blood stage cycle. The experiment is classed as cell-based, P. falciparum.
Source text: as §1, with “survival.” for “survival. (A) Ring stage survival assays (RSA) (Witkowski et al., Lancet Infect. Dis. 13, 1043-1049 (2013)) with Darapladib (Dar) and Dihydroartemisinin (DHA) against ART-resistant P. falciparum strains. For detailed data regarding synergism, cf. Table 1. (B) Growth/Progression assay with continuous Darapladib treatment against ART-resistant P. falciparum strains. Data are means ± SD of three independent experiments, unpaired t-tests.”, “Incubation with 25µM Darapladib decreased the Tm of PRDX6 by 1.1 ± 0.2 °C.” left out

The subject of experiment [4] is NF54 Kelch13^C580Y. In words: Growth/Progression assay with continuous treatment. The experiment is classed as cell-based, P. falciparum. Conditions: continuous treatment during the complete blood stage cycle.
Source text: as §1, with “survival.” for “survival. (A) Ring stage survival assays (RSA) (Witkowski et al., Lancet Infect. Dis. 13, 1043-1049 (2013)) with Darapladib (Dar) and Dihydroartemisinin (DHA) against ART-resistant P. falciparum strains. For detailed data regarding synergism, cf. Table 1. (B) Growth/Progression assay with continuous Darapladib treatment against ART-resistant P. falciparum strains. Data are means ± SD of three independent experiments, unpaired t-tests.”, “Incubation with 25µM Darapladib decreased the Tm of PRDX6 by 1.1 ± 0.2 °C.” left out

For experiment [5], the target named is T1, phosphorylated recombinant human PRDX6 (Homo sapiens, UniProt P30041).
T1 sequence (P30041 1-224): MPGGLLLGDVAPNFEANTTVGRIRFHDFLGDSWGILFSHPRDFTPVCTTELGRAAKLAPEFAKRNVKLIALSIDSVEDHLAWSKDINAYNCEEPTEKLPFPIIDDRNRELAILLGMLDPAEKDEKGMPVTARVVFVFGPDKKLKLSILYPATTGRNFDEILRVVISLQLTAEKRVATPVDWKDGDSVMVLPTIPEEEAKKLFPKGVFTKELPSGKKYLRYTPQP
In words: Radioactive PLA2 activity assay. The experiment is classed as biochemical. Conditions: read-out: IC50 of inhibition of PLA2 activity of PRDX6.
Source text: as §1, with “survival.” for “survival. (A) Ring stage survival assays (RSA) (Witkowski et al., Lancet Infect. Dis. 13, 1043-1049 (2013)) with Darapladib (Dar) and Dihydroartemisinin (DHA) against ART-resistant P. falciparum strains. For detailed data regarding synergism, cf. Table 1. (B) Growth/Progression assay with continuous Darapladib treatment against ART-resistant P. falciparum strains. Data are means ± SD of three independent experiments, unpaired t-tests.”, “Incubation with 25µM Darapladib decreased the Tm of PRDX6 by 1.1 ± 0.2 °C.” left out

For experiment [6], the target named is T2, PRDX6 (Homo sapiens, UniProt P30041).
T2 sequence (P30041 1-224): T1 sequence (P30041 1-224)
In words: ITDR-CETSA (IsoThermal Dose Response-Cellular Thermal Shift Assay). The experiment is classed as cell-based. Set-up: endogenous in cells; inferred to be P. falciparum-infected human red blood cells, because host and parasite proteins were profiled together. Conditions: host and parasite proteins.

Experiment [7] addresses T2, PRDX6. The experiment is described as follows: Activity-based protein profiling (ABPP), competition with the probe TAMRA-FP. The experiment is classed as binding. Conditions: fluorescent labelling of PRDX6. An excerpt:
Darapladib has been assessed for the binding to the PLA2 active site of PRDX6 by activity-based protein profiling (ABPP) using recombinant human PRDX6 and the fluorescently tagged probe TAMRA-FP that covalently labels the serine in the PLA2 active site of PRDX6.

For a further experiment, the system named is P. falciparum 3D7. The experiment is described as follows: Blood stage progression and growth assay, flow cytometry with SYBR Green I. Conditions: for pIC50: Plasmodium falciparum, 3D7, n = 3 in triplicates. The experiment is classed as cell-based.
Source text: as §1, with “1.” for “1. (B) Growth/Progression assay with continuous Darapladib treatment against ART-resistant P. falciparum strains. Data are means ± SD of three independent experiments, unpaired t-tests.”, “Incubation with 25µM Darapladib decreased the Tm of PRDX6 by 1.1 ± 0.2 °C.” left out
Darapladib was also tested in vitro for its ability to block P. falciparum blood stage growth and progression from rings to schizonts. Synchronous P. falciparum 3D7 cultures were treated at the ring stage and effects on ring to schizont development ("progression") and multiplication following completion of a full blood stage cycle ("growth") were assessed by flow cytometry using the DNA intercalating fluorescent dye SYBR Green I. […]

The target in experiment [8] is T2, PRDX6. In words: SYPRO orange-based differential scanning fluorimetry (DSF) assay. The experiment is classed as binding. Set-up: endogenous in cells; inferred to be P. falciparum-infected human red blood cells, because host and parasite proteins were profiled together. Conditions: incubation with 25µM; ΔTm > 0.5°C considered significant. The text has this:
In early and late trophozoites, multiple PRDX6 foci (white arrow heads) were observed adjacent to the parasite FV. DNA, Hoechst 33342 (nuclei). Scale bars: 5 µm. (B-F) Immuno-transmission electron microscopy (TEM) using monoclonal mouse anti-PRDX6 antibody. (B) Uninfected RBC showing even cytosolic staining for PRDX6. (C-F) P. falciparum-infected RBCs show co-localization of PRDX6 and hemoglobin in vesicles at the inner surface of the parasite plasma membrane in structures that resemble cytostomes (black arrows), at the FV (white arrows), or within the parasite cytosol (striped grey arrow). Scale bars: 500 nm. […] Parasites were treated at ring stage and growth to schizont stage in the same cycle ("progression") or to next generation rings ("growth") was scored by flow cytometry using DNA intercalating fluorescent dye SYBR Green I. • Figure 3 concerns the radioactive PLA2 activity assay using phosphorylated recombinant human PRDX6 in presence or absence of Darapladib. […] The thermal shift of the melting temperature of PRDX6 in presence of Darapladib was determined using a SYPRO orange-based differential scanning fluorimetry (DSF) assay. ΔTm > 0.5°C was considered significant. […]
Binding of the compounds of the invention to PRDX6 induces a significant shift in the melting temperature of PRDX6 which can be detected using the hydrophobic fluorescent dye SYPRO orange (Figure 5). […]

Two molecules from patent EP4257133A1, “OXO-AZAHETEROCYCLIC DERIVATIVES FOR USE IN THE TREATMENT OF MALARIA” (Institut Pasteur, priority 2022, dated 2023) can be followed below.

pIC50: −log10 of the molar value. Where two headings read alike, the source gives them in different places.

In the case of `C[C@H]1[C@@H](O)O[C@@H]2O[C@@]3(C)CC[C@H]4[C@H](C)CC[C@@H]1[C@@]24OO3` [DHA, Dihydroartemisinin], the “Parasite survival, Drugs Alone, DHA” value stood at 7.1 ± 0.9% in the experiment on 3815 strain [1] (3815, 700 nM DHA alone) and 7.9 ± 1.7% in the experiment on NF54 Kelch13^C580Y [2] (700 nM DHA alone).
On to `CCN(CC)CCN(Cc1ccc(-c2ccc(C(F)(F)F)cc2)cc1)C(=O)Cn1c(SCc2ccc(F)cc2)nc(=O)c2c1CCC2` [Darapladib], for which the blood stage growth result with 3815 strain [3] and in the experiment with NF54 Kelch13^C580Y [4] was “effectively blocked blood stage growth” throughout. Besides, the “Parasite survival, Drugs Alone, Dar 1µM” value was found to be 94.7 ± 3.2% with 3815 strain [1] (3815, 1 µM Darapladib alone) and 89.0 ± 8.1% in the experiment on NF54 Kelch13^C580Y [2] (1 µM Darapladib alone). The pIC50 in experiment [5] is around 6.30; in the experiment on P. falciparum 3D7 (ring stage to schizont, read-out: IC50 for parasite progression) it was 6.25; in the experiment on P. falciparum 3D7 (whole cycle, ring to ring, read-out: IC50 for parasite growth), 6.12. The “specificity for PRDX6” value on PRDX6 [6] is on record as “no other essential host or parasite protein is targeted”. For the same molecule, on PRDX6 [7], the “binding to the PLA2 active site of PRDX6” value is “bound the PLA2 active site of PRDX6, competed with TAMRA-FP and reduced the fluorescent labelling of PRDX6”. Also, the parasite development result in the experiment with P. falciparum 3D7 (3D7 cultures treated at the ring stage) is “arrested parasite development at the trophozoite stage”. Further, the “decrease of the Tm of PRDX6” value on PRDX6 [8] is 1.1 ± 0.2 °C.
